From ChEMBL document CHEMBL4414672, “Synthesis of certain benzothieno[3,2-d]pyrimidine derivatives as a selective SIRT2 inhibitors” (Eur J Med Chem, 2020)

Assays:
Assay type in all cases: functional
UACC-62 = assay: Growth inhibition of human UACC62 cells at 10^-5 M incubated for 48 hrs by sulforhodamine B assay; conditions: UACC-62, 48 h, read-out: GI
SW-620 = assay: Growth inhibition of human SW620 cells at 10^-5 M incubated for 48 hrs by sulforhodamine B assay; conditions: SW-620, 48 h, read-out: GI
SK-OV-3 = assay: Growth inhibition of human SKOV3 cells at 10^-5 M incubated for 48 hrs by sulforhodamine B assay; conditions: SK-OV-3, 48 h, read-out: GI
SR = assay: Growth inhibition of human SR cells at 10^-5 M incubated for 48 hrs by sulforhodamine B assay; conditions: read-out: GI
NCI-H460 = assay: Growth inhibition of human NCI-H460 cells at 10^-5 M incubated for 48 hrs by sulforhodamine B assay; conditions: NCI-H460, 48 h, read-out: GI
RXF 393 = assay: Growth inhibition of human RXF393 cells at 10^-5 M incubated for 48 hrs by sulforhodamine B assay; conditions: RXF 393, 48 h, read-out: GI
MOLT-4 = assay: Growth inhibition of human MOLT4 cells at 10^-5 M incubated for 48 hrs by sulforhodamine B assay; conditions: MOLT-4, 48 h, read-out: GI
A498 = assay: Growth inhibition of human A498 cells at 10^-5 M incubated for 48 hrs by sulforhodamine B assay; conditions: A498, 48 h, read-out: GI
HCT-15 = assay: Growth inhibition of human HCT15 cells at 10^-5 M incubated for 48 hrs by sulforhodamine B assay; conditions: HCT-15, 48 h, read-out: GI
UO-31 = assay: Growth inhibition of human UO31 cells at 10^-5 M incubated for 48 hrs by sulforhodamine B assay; conditions: UO-31, 48 h, read-out: GI
MDA-MB-231 = assay: Growth inhibition of human MDA-MB-231 cells at 10^-5 M incubated for 48 hrs by sulforhodamine B assay; conditions: MDA-MB-231, 48 h, read-out: GI
MDA-MB-468 = assay: Growth inhibition of human MDA-MB-468 cells at 10^-5 M incubated for 48 hrs by sulforhodamine B assay; conditions: MDA-MB-468, 48 h, read-out: GI
Malme-3M = assay: Growth inhibition of human MALME-3M cells at 10^-5 M incubated for 48 hrs by sulforhodamine B assay; conditions: read-out: GI
PC-3 = assay: Growth inhibition of human PC3 cells at 10^-5 M incubated for 48 hrs by sulforhodamine B assay; conditions: PC-3, 48 h, read-out: GI
NCI-H226 = assay: Growth inhibition of human NCI-H226 cells at 10^-5 M incubated for 48 hrs by sulforhodamine B assay; conditions: NCI-H226, 48 h, read-out: GI
SK-MEL-2 = assay: Growth inhibition of human SK-MEL-2 cells at 10^-5 M incubated for 48 hrs by sulforhodamine B assay; conditions: SK-MEL-2, 48 h, read-out: GI
SK-MEL-5 = assay: Growth inhibition of human SK-MEL-5 cells at 10^-5 M incubated for 48 hrs by sulforhodamine B assay; conditions: SK-MEL-5, 48 h, read-out: GI
BT-549 = assay: Growth inhibition of human BT549 cells at 10^-5 M incubated for 48 hrs by sulforhodamine B assay; conditions: BT-549, 48 h, read-out: GI
SK-MEL-28 = assay: Growth inhibition of human SK-MEL-28 cells at 10^-5 M incubated for 48 hrs by sulforhodamine B assay; conditions: SK-MEL-28, 48 h, read-out: GI
786-0 = assay: Growth inhibition of human 786-0 cells at 10^-5 M incubated for 48 hrs by sulforhodamine B assay; conditions: 786-0, 48 h, read-out: GI
TK-10 = assay: Growth inhibition of human TK10 cells at 10^-5 M incubated for 48 hrs by sulforhodamine B assay; conditions: TK-10, 48 h, read-out: GI
OVCAR-8 = assay: Growth inhibition of human OVCAR8 cells at 10^-5 M incubated for 48 hrs by sulforhodamine B assay; conditions: OVCAR-8, 48 h, read-out: GI
IGROV-1 = assay: Growth inhibition of human IGROV1 cells at 10^-5 M incubated for 48 hrs by sulforhodamine B assay; conditions: IGROV-1, 48 h, read-out: GI
NCI-H23 = assay: Growth inhibition of human NCI-H23 cells at 10^-5 M incubated for 48 hrs by sulforhodamine B assay; conditions: NCI-H23, 48 h, read-out: GI
M14 = assay: Growth inhibition of human M14 cells at 10^-5 M incubated for 48 hrs by sulforhodamine B assay; conditions: M14, 48 h, read-out: GI
SF-268 = assay: Growth inhibition of human SF268 cells at 10^-5 M incubated for 48 hrs by sulforhodamine B assay; conditions: SF-268, 48 h, read-out: GI
SF-539 = assay: Growth inhibition of human SF539 cells at 10^-5 M incubated for 48 hrs by sulforhodamine B assay; conditions: SF-539, 48 h, read-out: GI
ACHN = assay: Growth inhibition of human ACHN cells at 10^-5 M incubated for 48 hrs by sulforhodamine B assay; conditions: read-out: GI
COLO 205 = assay: Growth inhibition of human COLO205 cells at 10^-5 M incubated for 48 hrs by sulforhodamine B assay; conditions: COLO 205, 48 h, read-out: GI
K562 = assay: Growth inhibition of human K562 cells at 10^-5 M incubated for 48 hrs by sulforhodamine B assay; conditions: K562, 48 h, read-out: GI
CAKI-1 = assay: Growth inhibition of human Caki1 cells at 10^-5 M incubated for 48 hrs by sulforhodamine B assay; conditions: CAKI-1, 48 h, read-out: GI
HOP-62 = assay: Growth inhibition of human HOP62 cells at 10^-5 M incubated for 48 hrs by sulforhodamine B assay; conditions: HOP-62, 48 h, read-out: GI
HL-60(TB) = assay: Growth inhibition of human HL-60(TB) cells at 10^-5 M incubated for 48 hrs by sulforhodamine B assay; conditions: HL-60, 48 h, read-out: GI
Hs-578T = assay: Growth inhibition of human Hs 578T cells at 10^-5 M incubated for 48 hrs by sulforhodamine B assay; conditions: read-out: GI
SF-295 = assay: Growth inhibition of human SF295 cells at 10^-5 M incubated for 48 hrs by sulforhodamine B assay; conditions: SF-295, 48 h, read-out: GI
NCI-H322M = assay: Growth inhibition of human NCI-H322M cells at 10^-5 M incubated for 48 hrs by sulforhodamine B assay; conditions: read-out: GI
T47D = assay: Growth inhibition of human T47D cells at 10^-5 M incubated for 48 hrs by sulforhodamine B assay; conditions: read-out: GI
SNB-19 = assay: Growth inhibition of human SNB19 cells at 10^-5 M incubated for 48 hrs by sulforhodamine B assay; conditions: SNB-19, 48 h, read-out: GI

SMILES | inhibition of growth at 10 µM (UACC-62) | inhibition of growth at 10 µM (SW-620) | inhibition of growth at 10 µM (SK-OV-3) | inhibition of growth at 10 µM (SR) | inhibition of growth at 10 µM (NCI-H460) | inhibition of growth at 10 µM (RXF 393) | inhibition of growth at 10 µM (MOLT-4) | inhibition of growth at 10 µM (A498) | inhibition of growth at 10 µM (HCT-15) | inhibition of growth at 10 µM (UO-31) | inhibition of growth at 10 µM (MDA-MB-231) | inhibition of growth at 10 µM (MDA-MB-468) | inhibition of growth at 10 µM (Malme-3M) | inhibition of growth at 10 µM (PC-3) | inhibition of growth at 10 µM (NCI-H226) | inhibition of growth at 10 µM (SK-MEL-2) | inhibition of growth at 10 µM (SK-MEL-5) | inhibition of growth at 10 µM (BT-549) | inhibition of growth at 10 µM (SK-MEL-28) | inhibition of growth at 10 µM (786-0) | further results
CCOC(=O)CSC1=Nc2c(sc3ccc(Cl)cc23)C(c2cccc([N+](=O)[O-])c2)N1 (centres undefined) | 6.62% | -4.96% | 8.27% | 21.4% | -0.74% | -12.8% | 14.6% | 6.9% | -2.2% | 44.7% | 9.26% | -24.4% | 5.55% | 9.33% | 8.28% | -6.23% | 3.95% | -12.4% | -14% | -2.24% | inhibition of growth at 10 µM (TK-10): -16.2%; inhibition of growth at 10 µM (OVCAR-8): -1.34%; inhibition of growth at 10 µM (IGROV-1): 21.6%; inhibition of growth at 10 µM (NCI-H23): 9.36%; inhibition of growth at 10 µM (M14): -3.62%; inhibition of growth at 10 µM (SF-268): 3.8%; inhibition of growth at 10 µM (SF-539): -3.84%; inhibition of growth at 10 µM (ACHN): 6.61%; inhibition of growth at 10 µM (COLO 205): -3.41%; inhibition of growth at 10 µM (K562): 10.3%; inhibition of growth at 10 µM (CAKI-1): 16.5%; inhibition of growth at 10 µM (HOP-62): 19.6%; inhibition of growth at 10 µM (HL-60(TB)): 3.55%; inhibition of growth at 10 µM (Hs-578T): -3.04%; inhibition of growth at 10 µM (SF-295): -0.53%; inhibition of growth at 10 µM (NCI-H322M): 7.77%; inhibition of growth at 10 µM (T47D): 22.6%; inhibition of growth at 10 µM (SNB-19): -0.3%
O=[N+]([O-])c1cccc(C2c3sc4ccc(Cl)cc4c3N=C3NN=CN32)c1 (centres undefined) | 3.57% | 5.16% | -4.54% | 4.93% | 2.77% | 1.71% | 0.47% | 22.4% | -1.1% | 23% | 5.59% | -15.5% | -2.71% | -9.08% | 21.7% | -3.53% | 5.85% | 16.9% | -17.9% | 5.64% | inhibition of growth at 10 µM (TK-10): 39%; inhibition of growth at 10 µM (OVCAR-8): 1.42%; inhibition of growth at 10 µM (IGROV-1): -11.9%; inhibition of growth at 10 µM (NCI-H23): 17.7%; inhibition of growth at 10 µM (M14): -2.02%; inhibition of growth at 10 µM (SF-268): 4.21%; inhibition of growth at 10 µM (SF-539): 6.94%; inhibition of growth at 10 µM (ACHN): 22%; inhibition of growth at 10 µM (COLO 205): -6.88%; inhibition of growth at 10 µM (K562): -4.99%; inhibition of growth at 10 µM (CAKI-1): -3.12%; inhibition of growth at 10 µM (HOP-62): 10.8%; inhibition of growth at 10 µM (HL-60(TB)): -6.74%; inhibition of growth at 10 µM (Hs-578T): -18.1%; inhibition of growth at 10 µM (SF-295): -3.63%; inhibition of growth at 10 µM (NCI-H322M): 5.8%; inhibition of growth at 10 µM (T47D): -3.72%; inhibition of growth at 10 µM (SNB-19): 1.87%
O=[N+]([O-])c1cccc(C2NC(N3CCOCC3)=Nc3c2sc2ccc(Cl)cc32)c1 (centres undefined) | 8.77% | -1.57% | -6.18% | 1.5% | 4.82% | -8.09% | 1.35% | 1.88% | -7.82% | 41.8% | 18.3% | -5.77% | 4.08% | 23% | 14.4% | -1.1% | 4.38% | -6.2% | -22.1% | -5.37% | inhibition of growth at 10 µM (TK-10): -10.7%; inhibition of growth at 10 µM (OVCAR-8): -3%; inhibition of growth at 10 µM (IGROV-1): 25%; inhibition of growth at 10 µM (NCI-H23): 13.4%; inhibition of growth at 10 µM (M14): -1.17%; inhibition of growth at 10 µM (SF-268): 3.84%; inhibition of growth at 10 µM (SF-539): 6.94%; inhibition of growth at 10 µM (ACHN): 10.4%; inhibition of growth at 10 µM (COLO 205): -6.02%; inhibition of growth at 10 µM (K562): -3.76%; inhibition of growth at 10 µM (CAKI-1): 27.7%; inhibition of growth at 10 µM (HOP-62): 9.52%; inhibition of growth at 10 µM (HL-60(TB)): -10.4%; inhibition of growth at 10 µM (Hs-578T): 1.47%; inhibition of growth at 10 µM (SF-295): -4.89%; inhibition of growth at 10 µM (NCI-H322M): 6.39%; inhibition of growth at 10 µM (T47D): 21.6%; inhibition of growth at 10 µM (SNB-19): 2.54%
